Measurements taken from publication PMC6202177 (Nature chemical biology, 2018).

Assays:
[1] = target: peptide-deficient H2-D^d/hβ2m/TAPBPR (Mus musculus, UniProt P01900); assay: Fluorescence anisotropy competition with TAMRA-P18-I10; type: binding, murine H2-D^d, human β2m; details: negative control peptide, in words
[2] = target: H2-D^d/TAPBPR (MHC-I/TAPBPR) (Mus musculus, UniProt P01900); assay: Thermodynamic cycle step 4: peptide binding to MHC-I/TAPBPR; set-up: species or system murine H2-D^d, human β2m; details: Fig. 6 mechanism, in words
biotinylated TAPBPR = biotinylated TAPBPR (UniProt Q9BX59); assay: SPR
[3] = target: peptide-deficient H2-D^d/hβ2m/TAPBPR complex (murine | human | not stated); assay: fluorescence polarisation
P18-I10/H2-D^d/hβ2m [4] = assay: NMR titration and line shape analysis of TAPBPR onto P18-I10/H2-D^d/hβ2m; type: binding, murine H2-D^d, human β2m; details: slow exchange on the chemical shift timescale, in words
peptide-deficient H2-D^d = assay: SEC binding of TAPBPR; set-up: species or system murine H2-D^d; details: in words
RGPGC/H2-D^d S73C = assay: SEC binding of TAPBPR; set-up: species or system murine H2-D^d; details: partially loaded RGPGC/H2-D^d S73C, in words
P18-I10/H2-D^d = assay: SEC binding of TAPBPR; set-up: species or system murine H2-D^d; details: fully-loaded P18-I10/H2-D^d, in words
[…]/HLA-B*15:01/hβ2m = SEC binding of TAPBPR; set-up: species or system human
[…]/HLA-B*27:02/hβ2m = SEC binding of TAPBPR; set-up: species or system human
[…]/HLA-A*01:01/hβ2m = NMR binding of TAPBPR; set-up: species or system human
[5] = target: peptide-deficient H2-D^d/hβ2m/TAPBPR complex (murine | human | not stated); assay: NMR titration
P18-I10/H2-D^d/hβ2m [6] = target: P18-I10/H2-D^d/hβ2m (murine | human | HIV); assay: NMR titration

**Q.** What does the source list for FVTI?
**A.** stability and exchange in the DSF and FA assays [1]: minimal stability and exchange; affinity class of peptide [2]: low-affinity

**Q.** H2-D^(d S73C)/β2m (complex) was tested. Which koff (biotinylated TAPBPR) did it give?
**A.** < 0.002 s⁻¹

**Q.** P18-I10 peptide was tested. Which K2′ [3] did it give?
**A.** 0.186 µM

**Q.** And the Kd [3]?
**A.** 0.09 µM

**Q.** “TAPBPR: molecular chaperone, TAP-binding protein related; luminal domain expressed in Drosophila S2 cells” was tested. Which “TAPBPR binding to pMHC-I by NMR” value (P18-I10/H2-D^d/hβ2m [4]) did it give?
**A.** tight complex

**Q.** What about the “TAPBPR binding (SEC)” value (peptide-deficient H2-D^d) of the same molecule?
**A.** high-affinity complex

**Q.** And the “TAPBPR binding (SEC)” value (RGPGC/H2-D^d S73C)?
**A.** high-affinity complex

**Q.** What about the “TAPBPR binding (SEC)” value (P18-I10/H2-D^d) of the same molecule?
**A.** high-affinity complex

**Q.** And the “TAPBPR binding (SEC)” value ([…]/HLA-B*15:01/hβ2m; 80 μM pMHC-I, 160 μM TAPBPR, room temperature 1 hour, HLA-B*15:01)?
**A.** No TAPBPR binding could be detected

**Q.** And the “koff implied if an interaction exists” value ([…]/HLA-B*15:01/hβ2m; HLA-B*15:01, inferred from lack of detectable binding (≫))?
**A.** > 3 s⁻¹

**Q.** And the “TAPBPR binding (SEC)” value ([…]/HLA-B*27:02/hβ2m; 80 μM pMHC-I, 160 μM TAPBPR, room temperature 1 hour, HLA-B*27:02)?
**A.** No TAPBPR binding could be detected

**Q.** And the “koff implied if an interaction exists” value ([…]/HLA-B*27:02/hβ2m; HLA-B*27:02, inferred from lack of detectable binding (≫))?
**A.** > 3 s⁻¹

**Q.** What about the “TAPBPR binding (NMR)” value ([…]/HLA-A*01:01/hβ2m; 200 µM pMHC-I, two-fold molar excess TAPBPR, HLA-A*01:01) of the same molecule?
**A.** No TAPBPR binding could be detected

**Q.** And the “koff implied if an interaction exists” value ([…]/HLA-A*01:01/hβ2m; HLA-A*01:01, inferred from lack of detectable binding (≫))?
**A.** > 3 s⁻¹

**Q.** For ^13C labeled P18-I10 (peptide), which Kd [5] is on record?
**A.** < 7.2 µM

**Q.** And the koff [5]?
**A.** < 80 s⁻¹

B1: TAPBPR (TAP-binding protein related), luminal domain (domain or fragment)
chain: KPHPAEGQWRAVDVVLDCFLAKDGAHRGALASSEDRARASLVLKQVPVLDDGSLEDFTDFQGGTLAQDDPPIIFEASVDLVQIPQAEALLHADCSGKEVTCEISRYFLQMTETTVKTAAWFMANMQVSGGGPSISLVMKTPRVTKNEALWHPTLNLPLSPQGTVRTAVEFQVMTQTQSLSFLLGSSASLDCGFSMAPGLDLISVEWRLQHKGRGQLVYSWTAGQGQAVRKGATLEPAQLGMARDASLTLPGLTIQDEGTYICQITTSLYRAQQIIQLNIQASPKVRLSLANEALLPTLICDIAGYYPLDVVVTWTREELGGSPAQVSGASFSSLRQSVAGTYSISSSLTAEPGSAGATYTCQVTHISLEEPLGASTQVVPPERR
**Q.** B1 was tested. Which Kd (P18-I10/H2-D^d/hβ2m [6]) did it give?
**A.** 32 µM
